In patent publication US6627628B1, “Substituted 4-amino-2-aryl-cyclopenta[d]pyrimidines, their production and use and pharmaceutical preparations containing same” (Aventis Pharma Deutschland, GmbH, priority 1998, dated 2003):

SMILES	melting point
COc1ccc(-c2nc3c(c(NCCc4ccccc4Cl)n2)CCC3)cc1 [Example 58, 2-(4-Methoxyphenyl)-4-(2-(2-chlorophenyl)ethylamino)-6,7-dihydro-5H-cyclopenta[d]pyrimidine]	145 °C
COc1cccc(CCNc2nc(-c3cccc(Cl)c3)nc3c2CCC3)c1.Cl	192 °C
CC(C)CNc1nc(-c2ccc(Cl)cc2)nc2c1CCC2 [Example 29, 2-(4-Chlorophenyl)-4-isobutylamino-6,7-dihydro-5H-cyclopenta[d]pyrimidine]	121 °C
CCN(CC)c1nc(-c2ccc(C#N)cc2)nc2c1CCC2 [Example 71, 2-(4-Cyanophenyl)-4-diethylamino-6,7-dihydro-5H-cyclopenta[d]pyrimidine]	130 °C
CCCCNc1nc(-c2ccc(OC)cc2)nc2c1CCC2 [Example 55, 2-(4-Methoxyphenyl)-4-butylamino-6,7-dihydro-5H-cyclopenta[d]pyrimidine]	119 °C
CC1(C)CC(Nc2nc(-c3cccc(Cl)c3)nc3c2CCC3)CC(C)(C)N1 [Example 31, 2-(3-Chlorophenyl)-4-(2,2,6,6-tetramethylpiperidin-4-ylamino)-6,7-dihydro-5H-cyclopenta[d]pyrimidine]	182 °C
Cc1ccc(-c2nc3c(c(N4CCSCC4)n2)CCC3)cc1 [Example 47, 2-(4-Methylphenyl)-4-thiomorpholino-6,7-dihydro-5H-cyclopenta[d]pyrimidine]	160 °C
COCCCNc1nc(-c2ccc(C#N)cc2)nc2c1CCC2 [Example 69, 2-(4-Cyanophenyl)-4-(3-methoxypropylamino)-6,7-dihydro-5H-cyclopenta[d]-pyrimidine]	130 °C
COc1ccc(-c2nc3c(c(NCCCO)n2)CCC3)cc1 [Example 54, 2-(4-Methoxyphenyl)-4-(3-hydroxypropylamino)-6,7-dihydro-5H-cyclopenta[d]-pyrimidine]	165 °C
CCCN(CCC)c1nc(-c2ccc(OC)c(OC)c2)nc2c1CCC2 [Example 66, 2-(3,4-Dimethoxyphenyl)-4-dipropylamino-6,7-dihydro-5H-cyclopenta[d]-pyrimidine]	107 °C
Clc1cccc(-c2nc3c(c(N4CCCC4)n2)CCC3)c1 [Example 36, 2-(3-Chlorophenyl)-4-pyrrolidino-6,7-dihydro-5H-cyclopenta[d]pyrimidine]	150 °C
COc1ccc(-c2nc3c(c(N4CCOCC4)n2)CCC3)cc1 [Example 61, 2-(4-Methoxyphenyl)-4-morpholino-6,7-dihydro-5H-cyclopenta[d]pyrimidine]	192 °C
N#Cc1ccc(-c2nc3c(c(N4CCOCC4)n2)CCC3)cc1 [Example 73, 2-(4-Cyanophenyl)-4-morpholino-6,7-dihydro-5H-cyclopenta[d]pyrimidine]	247 °C
COCCNc1nc(-c2ccc(Cl)cc2)nc2c1CCC2.Cl	208 °C
Cc1ccc(-c2nc3c(c(NCCO)n2)CCC3)cc1 [Example 39, 2-(4-Methylphenyl)-4-(2-hydroxyethylamino)-6,7-dihydro-5H-cyclopenta[d]-pyrimidine]	191 °C
COc1ccc(-c2nc3c(c(NC4CCCCC4)n2)CCC3)cc1OC [Example 64, 2-(3,4-Dimethoxyphenyl)-4-cyclohexylamino-6,7-dihydro-5H-cyclopenta[d]-pyrimidine]	70 °C
Cl.Cl.Clc1ccc(-c2nc3c(c(N(Cc4ccccc4)C4CCNCC4)n2)CCC3)cc1	275 °C
N#Cc1ccc(-c2nc3c(c(NCc4ccccc4)n2)CCC3)cc1 [Example 70, 2-(4-Cyanophenyl)-4-benzylamino-6,7-dihydro-5H-cyclopenta[d]pyrimidine]	168 °C
Clc1cccc(-c2nc3c(c(NCc4cccnc4)n2)CCC3)c1 [Example 22, 2-(3-Chlorophenyl)-4-((3-pyridylmethyl)amino)-6,7-dihydro-5H-cyclopenta[d]-pyrimidine]	185 °C
